Assay results reported in patent US7132568B2, “Aspartyl protease inhibitors” (Sunesis Pharmaceuticals, Inc., priority 2002, dated 2006).

Columns and labels:
[1] = tested on: H4 neuroglioma cells stably transfected with APP (H4 β695wt); assay: Cell-based Aβ secretion assay (sandwich ELISA) in H4 cells; conditions: Homo sapiens
Text: This example describes an illustrative set of cell-based assays for testing the ability of the compounds of the present invention to inhibit the secretion of the Aβ peptide from cells expressing high levels of the human amyloid precursor protein (“APP”).
A representative set of such cells include A-204 rhabdomyosarcoma cells, human embryonic kidney 293 cells transiently transfected with APP, Chinese hamster ovary cells stably transfected with APP (CHO2B7), and H4 neuroglioma cells stably transfected with APP (H4 β695wt). The A-204 cells and HEK 293 cells were obtained from ATCC. For HEK 293 transient transfections, a pcDNA3 plasmid containing the human APP gene was obtained from Invitrogen, and cells were transfected with FuGENE 6 transfection reagent (Roche) following manufacturer's protocols. The CHO2B7 and H4 β695 wt lines were obtained from Mayo Clinic (J. Neuroscience Methods 108(2): 171–9 (2001)). […]
In the assay, cells were pre-treated with compounds for 1–2 hours to “wash out” any Aβ in the secretory pathway prior to incubation with compounds for the conditioning period required to generate detectable concentrations of Aβ. The production of secreted Aβ in cultured cells was monitored by sandwich ELISA, using the anti-Aβ monoclonal antibodies 6E10 and 4G8 (Signet Laboratories). […]

[2] = Plasma stability in human plasma; type: in vitro ADME; conditions: 37° C.
Protocol: Plasma stability was determined by incubating the compounds in human plasma at a concentration of 1 μM at 37° C. for 0, 30 and 60 minutes. Reactions were stopped by addition of acetonitrile. Protein was precipitated by centrifugation (3000 rpm×10 min) then supernatants were analyzed for remaining parent compound by LC/MS/MS.

[3] = Metabolic stability in human liver microsomes; type: in vitro ADME; conditions: pH 7.4
Protocol: Metabolic stability was determined by incubating the compounds with human liver microsomes (100 μg/ml) in 100 mM Tris buffer pH 7.4 for 5 minutes at 37° C. Metabolic reactions were started by addition of NADPH to give a final concentration of […]. Reactions were stopped after 30 and 60 minutes by addition of acetonitrile. Protein was precipitated by centrifugation (3000 rpm×10 min) then supernatants were analyzed for remaining parent compound by LC/MS/MS.

[4] = target: Cat D (Homo sapiens, UniProt P07339); assay: Cat D Ki determination (DABCYL/EDANS substrate); type: biochemical
Protocol: The Ki determination for Cat D was performed using the assay conditions derived from Haque et al., J. Med. Chem. 42: 1428–1440 (1999) and the following substrate: DABCYL-GLu-Arg-Nle-Phe-Leu-Ser-Phe-Pro-EDANS where Nle is norleucine and DABCYL and EDANS are as previously defined.

Sequence of Cat D (P07339 65-412): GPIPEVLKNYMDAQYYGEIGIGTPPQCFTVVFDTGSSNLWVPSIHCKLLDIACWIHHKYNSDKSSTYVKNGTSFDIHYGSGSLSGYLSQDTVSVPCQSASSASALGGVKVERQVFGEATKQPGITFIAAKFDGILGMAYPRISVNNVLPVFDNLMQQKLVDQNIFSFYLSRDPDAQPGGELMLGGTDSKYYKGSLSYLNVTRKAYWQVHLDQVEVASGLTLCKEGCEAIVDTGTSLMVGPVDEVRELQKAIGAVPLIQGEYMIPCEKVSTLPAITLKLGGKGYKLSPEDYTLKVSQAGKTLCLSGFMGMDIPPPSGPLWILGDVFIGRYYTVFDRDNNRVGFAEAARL

| SMILES | IC50 [1] | recovery at 1 h, 1 μM [2] | recovery at 60 min [3] | Ki [4] | preference for BACE over Cat D ([4]; Cat D Ki versus BACE Ki) | preference for Cat D over BACE ([4]; BACE Ki versus Cat D Ki) |
| --- | --- | --- | --- | --- | --- | --- |
| CCCN(CCC)C(=O)c1cccc(C(=O)N[C@@H](CC(C)C)[C@@H](N)C[C@@H](C)C(=O)N[C@H](C(=O)NCc2ccccc2)C(C)C)c1 [R = NH2] | 740 nM | 100% | 43% | 610 nM | over a three fold preference for BACE over Cat D |  |
| CCCN(CCC)C(=O)c1cccc(C(=O)N[C@@H](CC(C)C)[C@@H](O)C[C@@H](C)C(=O)N[C@H](C(=O)NCc2ccccc2)C(C)C)c1 [R = OH] | 2000 nM | 100% | 0% | 20 nM |  | 7.5 fold |
